Read-outs that look alike come from different tables or passages of the source.
Key:
[1] = Study 2: phase 1 open-label crossover DDI study, plasma PK of oral immunosuppressant/oncology drugs alone vs with i.v. rezafungin; conditions: for Magnitude of decrease in Cmax with rezafungin vs drug alone / AUC0–t, geometric mean ratio (drug + rezafungin / drug alone) / AUC0–∞, geometric mean ratio (drug + rezafungin / drug alone) / Cmax, geometric mean ratio (drug + rezafungin / drug alone): mycophenolic acid analyte for mycophenolate mofetil; for AUC0–t, geometric mean ratio (drug + rezafungin / drug alone) / AUC0–∞, geometric mean ratio (drug + rezafungin / drug alone) / Cmax, geometric mean ratio (drug + rezafungin / drug alone): rezafungin 200 mg i.v., geometric LSM ratio x 100, ANOVA
Method: (§1) Both were phase 1, single-center, open-label, crossover inpatient studies that were conducted in the United States in healthy adults (study 1, aged 26 to 55 years; study 2, aged 21 to 59 years). The studies were compliant with the International Council for Harmonisation of Technical Requirements for Pharmaceuticals for Human Use E6 guideline for good clinical practice ([54]) and the Declaration of Helsinki. The study protocols were approved by the institutional review board associated with the study site, and all subjects provided written informed consent.
(§2) After screening, subjects were admitted to the CRU on day −17 (prior to the first rezafungin dose) and were discharged on day 22. Rezafungin was dosed via i.v. infusion over 1 h at 400 mg on day 1 and 200 mg on day 8 and day 15. The oral drugs to be tested for interactions were each administered twice on a schedule designed to allow washout between doses: once alone and once while receiving rezafungin (Fig. 4B). The total duration of treatment was approximately 84 days, which included 45 days of screening and 39 days of treatment in the CRU.
(§3) In study 1, predose PK blood samples were collected on each dosing day ≤60 min prior to the administration of the substrate drugs with or without rezafungin. Multiple blood samples were collected relative to each dose, with collection times ranging from 15 min to 168 h postdose, depending on the PK profile of each probe substrate drug (Table S5). For study 2, multiple blood samples were collected, and the timing of collection varied according to the PK profile of each coadministered drug from predose to 96 h postdose (Table S6). PK blood samples were collected for rezafungin at sample times ranging from predose to 168 h postdose.
(§4) For both studies, validated liquid chromatography-tandem mass spectrometry (LC-MS/MS) methods were used for PK assessments to analyze the concentrations of rezafungin and coadministered drugs. All plasma concentrations and actual blood sampling times were subjected to noncompartmental PK analysis. PK parameter calculations were performed using noncompartmental analysis (NCA) (Phoenix WinNonlin version 8.0 or higher). The PK parameters analyzed included Cmax; the time to reach the maximum observed plasma concentration (Tmax); AUC0–t (using the log-linear trapezoidal rule, where t was the last time point with a measurable concentration); AUC0–∞ (calculated as AUC0–t + Clast/λz); the AUC from 0 to 168 h (AUC0–168); the percentage of AUC0–∞ extrapolated (AUC%Extrap); the terminal elimination rate constant, determined by linear regression of the terminal linear segment of the log concentration-versus-time curve (λz); and the elimination half-life (t1/2), calculated as ln(2)/λz.
(§5) The primary analysis of the drug interaction effect on substrate drugs following rezafungin administration was assessed by the ratio of the geometric least-squares (LS) mean of each substrate drug administered with rezafungin to that without rezafungin. […] PK parameters were statistically analyzed using an analysis of variance (ANOVA) model. […] However, noncompliance with these no-effect boundaries was not considered evidence of a significant DDI. Statistical analyses were performed using SAS (version 9.4) and the mixed procedure. Adverse events were descriptively summarized.

[2] = Method: as §1
After screening, subjects were admitted to the clinical research unit (CRU) prior to the first dose of rezafungin (from day −22) and were discharged from the CRU on day 22. Nine oral substrate drugs were administered as part of a cocktail containing two or more drugs once before and once after receiving rezafungin on a schedule designed to allow the washout of the drugs in the cocktail between doses and limit interactions with other drugs (Fig. 4A). […] A loading dose of rezafungin for injection (600 mg) was administered over 1 h on day 1, followed by two once-weekly 400-mg doses over 1 h on days 10 and 15. Due to a short delay in the availability of the investigation study drug, the second once-weekly dose of rezafungin and the second set of oral substrate drugs were administered on day 10 instead of day 8, although the time between doses remained sufficient for all originally planned PK samplings through 96 h postdose and for the adequate washout of the substrate drugs. The total duration of treatment was up to 89 days, including 45 days of screening and 44 days of treatment in the CRU.
as §3, §4, §5

[3] = Study 2 safety and tolerability (TEAEs); conditions: Study 2; one subject each
Method: as §2
In both studies, the safety population included all subjects who received any amount of the study drug. In study 1, the rezafungin safety population included all subjects who received any amount of rezafungin. Safety assessments included vital signs (temperature, heart rate, blood pressure, and respiratory rate), safety laboratory evaluations (hematology assessment, serum chemistry panel, and urinalysis), physical examinations (complete and symptom directed), and EKGs.
Microbiology Spectrum Supplementary materials
Abbreviations: TEAE = treatment-emergent adverse event.
N = number of subjects in the safety population; n = number of subjects in a sample.
Notes: Each TEAE was counted only once for each subject within each System Organ Class and Preferred Term.

[4] = clinical study, U.S. prescribing information; cited from earlier work
[5] = Study 2, from geometric mean ratio
[6] = Study 2, healthy subjects, oral cyclosporine 200 mg, ibrutinib 280 mg or mycophenolate mofetil 500 mg (analyte mycophenolic acid) without rezafungin, plasma, LC-MS/MS, NCA
[7] = Study 2, healthy subjects, oral ibrutinib 280 mg (day 8) or mycophenolate mofetil 500 mg (day 15, cohort 1; analyte mycophenolic acid) with i.v. rezafungin 200 mg, plasma, LC-MS/MS, NCA
[8] = Study 1, healthy subjects, oral tacrolimus 5 mg or rosuvastatin 5 mg without rezafungin, plasma, LC-MS/MS, NCA
[9] = Study 1, healthy subjects, oral tacrolimus 5 mg with i.v. rezafungin 600 mg (day 1), plasma, LC-MS/MS, NCA
[10] = Study 1, rezafungin 600 mg i.v., geometric LSM ratio x 100, ANOVA
[11] = Study 2, healthy subjects (cohort 2), oral venetoclax 50 mg with i.v. rezafungin 200 mg (day 15), plasma, LC-MS/MS, NCA
[12] = Study 2, healthy subjects (cohort 2), oral venetoclax 50 mg without rezafungin, plasma, LC-MS/MS, NCA

## C=CC(=O)N1CCC[C@@H](n2nc(-c3ccc(Oc4ccccc4)cc3)c3c(N)ncnc32)C1 [Ibrutinib]
[1]; [5]
  Magnitude of decrease in Cmax with rezafungin vs drug alone: ~17%

## COc1c(C)c2c(c(O)c1C/C=C(\C)CCC(=O)OCCN1CCOCC1)C(=O)OC2 [Mycophenolate mofetil]
[1]; [6]
  AUC0–t, geometric LSM value, alone: 25,299.70 ng · h/mL
  AUC0–∞, geometric LSM value, alone: 27,954.20 ng · h/mL
  Cmax, geometric LSM value, alone: 9,541.20 ng/mL
[1]; [7]
  AUC0–t, geometric LSM value, + rezafungin: 25,054.90 ng · h/mL
  AUC0–∞, geometric LSM value, + rezafungin: 28,257.00 ng · h/mL
  Cmax, geometric LSM value, + rezafungin: 7,740.58 ng/mL
[1]; Study 2, class symbol, AUC0–t and AUC0–∞ unless otherwise noted
  Observation, AUC (change with rezafungin relative to drug alone): ↔ (no change (the ratio of the PK parameter value varied by up to ~10%, and the 90% CI was within 80 to 125%))
[1]; Study 2
  AUC0–t, geometric mean ratio (drug + rezafungin / drug alone): 99.03%
  AUC0–∞, geometric mean ratio (drug + rezafungin / drug alone): 101.08%
  Cmax, geometric mean ratio (drug + rezafungin / drug alone): 81.13%

## COc1c(C)c2c(c(O)c1C/C=C(\C)CCC(=O)O)C(=O)OC2 [Mycophenolic acid]
[1]; [5]
  Magnitude of decrease in Cmax with rezafungin vs drug alone: 19%

## C=CC[C@@H]1/C=C(\C)C[C@H](C)C[C@H](OC)[C@H]2O[C@@](O)(C(=O)C(=O)N3CCCC[C@H]3C(=O)O[C@H](/C(C)=C/[C@@H]3CC[C@@H](O)[C@H](OC)C3)[C@H](C)[C@@H](O)CC1=O)[C@H](C)C[C@@H]2OC [Tacrolimus]
[2]; [8]
  AUC0–t, geometric LSM value, alone: 309,698.20 pg · h/mL
  AUC0–∞, geometric LSM value, alone: 328,990.49 pg · h/mL
  Cmax, geometric LSM value, alone: 30,489.62 pg/mL
[2]; [9]
  AUC0–t, geometric LSM value, + rezafungin: 266,002.13 pg · h/mL
  AUC0–∞, geometric LSM value, + rezafungin: 283,328.47 pg · h/mL
  Cmax, geometric LSM value, + rezafungin: 28,909.40 pg/mL
[2]; Study 1, AUC0–t and AUC0–∞, from geometric mean ratio
  Magnitude of decrease in AUC with rezafungin vs drug alone: ~14%
[2]; Study 1, class symbol
  Observation, Cmax (change with rezafungin relative to drug alone): ↔ (no change (the ratio of the PK parameter value varied by up to ~10%, and the 90% CI was within 80 to 125%))
[2]; [10]
  AUC0–t, geometric mean ratio (drug + rezafungin / drug alone): 85.89%
  AUC0–∞, geometric mean ratio (drug + rezafungin / drug alone): 86.12%
  Cmax, geometric mean ratio (drug + rezafungin / drug alone): 94.82%

## CC1(C)CCC(CN2CCN(c3ccc(C(=O)NS(=O)(=O)c4ccc(NCC5CCOCC5)c([N+](=O)[O-])c4)c(Oc4cnc5[nH]ccc5c4)c3)CC2)=C(c2ccc(Cl)cc2)C1 [Venetoclax]
[1]; [11]
  AUC0–t, geometric LSM value, + rezafungin: 2,693.83 pg · h/mL
  AUC0–∞, geometric LSM value, + rezafungin: 2,781.57 pg · h/mL
[1]; [12]
  AUC0–t, geometric LSM value, alone: 3,004.70 pg · h/mL
  AUC0–∞, geometric LSM value, alone: 3,082.58 pg · h/mL
[1]; Study 2, AUC0–t and AUC0–∞, from geometric mean ratio
  Magnitude of decrease in AUC with rezafungin vs drug alone: ~10%
[1]; Study 2, class symbol
  Observation, Cmax (change with rezafungin relative to drug alone): ↔ (no change (the ratio of the PK parameter value varied by up to ~10%, and the 90% CI was within 80 to 125%))
[1]; Study 2
  AUC0–t, geometric mean ratio (drug + rezafungin / drug alone): 89.65%
  AUC0–∞, geometric mean ratio (drug + rezafungin / drug alone): 90.24%
  Cmax, geometric mean ratio (drug + rezafungin / drug alone): 94.84%
[3]
  severe TEAE deemed by the investigator to be related to the drug: abdominal pain

## Caspofungin
[4]
  increase in AUC of caspofungin by cyclosporine: approximately 35%
  reduction of trough concentrations of caspofungin by rifampicin: 30%

— PMC10269561, “Absence of Clinically Meaningful Drug-Drug Interactions with Rezafungin: Outcome of Investigations” (Microbiology Spectrum, 2023)
